Where a name gives a salt, the structure may show the parent alone. Read-outs that look alike come from different tables or passages of the source. Positions of bridges follow the written chain, without caps; N, C: chain ends. Non-standard residues stand in square brackets, D forms with d. Residues, ends and D or L forms follow the SMILES beside them. *: point of attachment. Ileψ(thiazoline)Cys = CC[C@H](C)[C@H](N)C1=N[C@H](C(=O)*)CS1; dOrn = NCCC[C@@H](N)C(=O)O
Legend:
Assay type in all cases: cell-based, human
[1] = test system: TSGH-8301 (Urinary Bladder Carcinoma); test: Cell viability analysis, bladder cancer TSGH-8301; details: Homo sapiens, 72 h
[2] = test system: AGS (Gastric Adenocarcinoma); test: Cell viability analysis, gastric cancer AGS; details: Homo sapiens, 72 h
[3] = test system: LoVo (Colorectal Adenocarcinoma); test: Cell viability analysis, colon cancer LoVo; details: Homo sapiens, LoVo, 72 h, read-out: cell viability (survival rate), LoVo, drug 10 μM, 72 hours, WST-1, OD450 nm
[4] = test system: cancer cell lines; test: Cell viability analysis (WST-1) on cancer cell lines; details: drug 10 μM, 72 hours, WST-1; Table 3
[5] = test system: HI650 (Lung Adenocarcinoma); test: Cell viability analysis, lung cancer HI650; details: Homo sapiens, NCI-H1650, 72 h
[6] = test system: HL-60 (Acute Promyelocytic Leukemia); test: Cell viability analysis, leukemia HL-60; details: Homo sapiens, HL-60, 72 h
[7] = test system: A375 (Amelanotic Melanoma); test: Cell viability analysis, skin cancer A375; details: Homo sapiens, A-375, 72 h
[8] = test system: PC3 (p53−) (Prostate Adenocarcinoma); test: Cell viability analysis, prostate cancer PC3; details: Homo sapiens, 72 h
[9] = test system: MKN-45 (Gastric Adenocarcinoma); test: Cell viability analysis, gastric cancer MKN-45; details: Homo sapiens, MKN-45, 72 h
[10] = test system: HeLa (Cervix Adenocarcinoma); test: Cell viability analysis, cervical cancer HeLa; details: Homo sapiens, HeLa, 72 h
[11] = test system: A549 (Lung Adenocarcinoma); test: Cell viability analysis, lung cancer A549; details: Homo sapiens, A549, 72 h
[12] = test system: HepG2 (Hepatocellular Carcinoma); test: Cell viability analysis, hepatic cancer HepG2; details: Homo sapiens, HepG2, 72 h
[13] = test system: MCF7 (Mammary Gland, Adenocarcinoma); test: Cell viability analysis, breast cancer MCF7; details: Homo sapiens, MCF7, 72 h
[14] = read-out: cell viability (survival rate), TSGH, drug 10 μM, 72 hours, WST-1, OD450 nm
[15] = read-out: cell viability (survival rate), AGS, drug 10 μM, 72 hours, WST-1, OD450 nm
[16] = read-out: cell viability (survival rate), H1650, drug 10 μM, 72 hours, WST-1, OD450 nm
[17] = read-out: cell viability (survival rate), HL-60, drug 10 μM, 72 hours, WST-1, OD450 nm
[18] = read-out: cell viability (survival rate), A375, drug 10 μM, 72 hours, WST-1, OD450 nm
[19] = read-out: cell viability (survival rate), PC3, drug 10 μM, 72 hours, WST-1, OD450 nm
[20] = read-out: cell viability (survival rate), MKN-45, drug 10 μM, 72 hours, WST-1, OD450 nm
[21] = read-out: cell viability (survival rate), HeLa, drug 10 μM, 72 hours, WST-1, OD450 nm
[22] = read-out: cell viability (survival rate), A549, drug 10 μM, 72 hours, WST-1, OD450 nm
[23] = read-out: cell viability (survival rate), HepG2, drug 10 μM, 72 hours, WST-1, OD450 nm
[24] = read-out: cell viability (survival rate), MCF7, drug 10 μM, 72 hours, WST-1, OD450 nm
[25] = drug 10 μM, 72 hours, WST-1, OD450 nm, read-out: cell viability (survival rate), TSGH
[26] = drug 10 μM, 72 hours, WST-1, OD450 nm, read-out: cell viability (survival rate), AGS
[27] = drug 10 μM, 72 hours, WST-1, OD450 nm, read-out: cell viability (survival rate), H1650
[28] = drug 10 μM, 72 hours, WST-1, OD450 nm, read-out: cell viability (survival rate), HL-60
[29] = drug 10 μM, 72 hours, WST-1, OD450 nm, read-out: cell viability (survival rate), A375
[30] = drug 10 μM, 72 hours, WST-1, OD450 nm, read-out: cell viability (survival rate), PC3
[31] = drug 10 μM, 72 hours, WST-1, OD450 nm, read-out: cell viability (survival rate), MKN-45
[32] = drug 10 μM, 72 hours, WST-1, OD450 nm, read-out: cell viability (survival rate), HeLa
[33] = drug 10 μM, 72 hours, WST-1, OD450 nm, read-out: cell viability (survival rate), A549
[34] = drug 10 μM, 72 hours, WST-1, OD450 nm, read-out: cell viability (survival rate), HepG2
[35] = drug 10 μM, 72 hours, WST-1, OD450 nm, read-out: cell viability (survival rate), MCF7

Structure (SMILES) | viability at 10 µM [1, 14] [%] | viability at 10 µM [2, 15] [%] | viability at 10 µM [3] [%] | inhibition effect on different cancer cell lines [4] | viability at 10 µM [5, 16] [%] | viability at 10 µM [6, 17] [%] | viability at 10 µM [7, 18] [%] | viability at 10 µM [8, 19] [%] | viability at 10 µM [9, 20] [%] | viability at 10 µM [10, 21] [%] | viability at 10 µM [11, 22] [%] | viability at 10 µM [12, 23] [%] | viability at 10 µM [13, 24] [%] | other results
C[C@H]1[C@H](NC(=O)/C(=N\OC(C)(C)C(=O)O)c2csc(N)n2)C(=O)N1S(=O)(=O)O [Aztreonam (Azactam, Cayston), Aztreonam] | 52.3 | 40.9 | 76.3 | significant inhibition effect | 48.6 | 113 | 88.6 | 55.2 | 60.5 | 87.2 | 56.9 | 111 | 68.6 | 
CC[C@H](C)[C@H](N)C1=N[C@H](C(=O)N[C@@H](CC(C)C)C(=O)N[C@H](CCC(=O)O)C(=O)N[C@H](C(=O)N[C@H]2CCCCNC(=O)[C@H](CC(N)=O)NC(=O)[C@@H](CC(=O)O)NC(=O)[C@H](Cc3cnc[nH]3)NC(=O)[C@@H](Cc3ccccc3)NC(=O)[C@H]([C@@H](C)CC)NC(=O)[C@@H](CCCN)NC2=O)[C@@H](C)CC)CS1 [Bacitracin] ({Ileψ(thiazoline)Cys}-L[dE]IK[dOrn]I[dF]H[dD]N; lactam 4-C) | 68.3 | 61.4 | 69.9 | significant inhibition effect | 65.4 | 85.9 | 54.7 | 70 | 46.9 | 68.4 | 51.4 | 86.4 | 41.4 | 
O=C(O)CCNC(=O)c1ccccc1 [Betamipron] | 85.4 | 75.2 | 93.5 | significant inhibition effect | 72.8 | 96.2 | 85.8 | 92.6 | 88.2 | 75.9 | 72.3 | 90.9 | 118 | 
C[C@@H](O)[C@H]1C(=O)N2C(C(=O)[O-])=C(SC3Cn4cnc[n+]4C3)[C@H](C)[C@H]12 (stereo partly drawn) [Biapenem] | 117 | 75.1 | 88.7 | significant inhibition effect | 42.2 | 95.5 | 60.4 | 80.3 | 81.5 | 54 | 90.1 | 66.4 | 136 | 
c1ccc(-c2ccc(C(c3ccccc3)n3ccnc3)cc2)cc1 (stereo not drawn) [Bifonazole] | 82.1 | 64.3 | 81.1 | significant inhibition effect | 55.9 | 119 | 94.9 | 78.2 | 50.5 | 67.2 | 79.3 | 109 | 73.3 | 
Clc1ccc(CCC(Cn2ccnc2)Sc2c(Cl)cccc2Cl)cc1 (stereo not drawn) [Butoconazole nitrate] | 86 | 78.7 | 112 | significant inhibition effect | 78.2 | 41.3 | 102 | 57.1 | 48.7 | 131 | 89.6 | 114 | 72.9 | 
CC1(C)S[C@@H]2[C@H](NC(=O)C(C(=O)O)c3ccccc3)C(=O)N2[C@H]1C(=O)O (stereo partly drawn) [Carbenicillin disodium] | 84.3 | 62.9 | 86.2 | significant inhibition effect | 76.2 | 114 | 70.2 | 84.4 | 84.3 | 77.8 | 53.5 | 88.9 | 59 | 
CCOC(=O)n1ccn(C)c1=S [Carbimazole] | 117 | 114 | 75 | significant inhibition effect | 80.9 | 80.1 | 65.1 | 95.6 | 131 | 90.3 | 73.9 | 97.2 | 102 | 
N[C@@H](C(=O)N[C@@H]1C(=O)N2C(C(=O)O)=C(Cl)CS[C@H]12)c1ccccc1 [Cefaclor (Ceclor), Cefaclor] |  |  | 88.2 | significant inhibition effect |  |  |  |  |  |  |  |  |  | viability at 10 µM [1, 25]: 81.6%; viability at 10 µM [2, 26]: 41.9%; viability at 10 µM [5, 27]: 62.3%; viability at 10 µM [6, 28]: 112%; viability at 10 µM [7, 29]: 67.5%; viability at 10 µM [8, 30]: 70.1%; viability at 10 µM [9, 31]: 97%; viability at 10 µM [10, 32]: 86.7%; viability at 10 µM [11, 33]: 61%; viability at 10 µM [12, 34]: 108%; viability at 10 µM [13, 35]: 90.6%
CO/N=C(\C(=O)N[C@@H]1C(=O)N2C(C(=O)OCOC(=O)C(C)(C)C)=C(/C=C\c3scnc3C)CS[C@H]12)c1csc(N)n1 [Cefditoren pivoxil] |  |  | 83.5 | significant inhibition effect |  |  |  |  |  |  |  |  |  | viability at 10 µM [1, 25]: 94.8%; viability at 10 µM [2, 26]: 86.5%; viability at 10 µM [5, 27]: 80.7%; viability at 10 µM [6, 28]: 110%; viability at 10 µM [7, 29]: 69.1%; viability at 10 µM [8, 30]: 83.9%; viability at 10 µM [9, 31]: 70.5%; viability at 10 µM [10, 32]: 58.7%; viability at 10 µM [11, 33]: 45.7%; viability at 10 µM [12, 34]: 96.9%; viability at 10 µM [13, 35]: 38.4%
CO/N=C(\C(=O)N[C@@H]1C(=O)N2C(C(=O)O)=C(CSC(=O)c3ccco3)CS[C@H]12)c1csc(N)n1 [Ceftiofur hydrochloride] | 50.6 | 69.4 | 85 | significant inhibition effect | 44 | 92.2 | 92.8 | 73.1 | 85.5 | 92.2 | 61.6 | 91.9 | 159 | 
CC1=C(C(=O)O)N2C(=O)[C@@H](NC(=O)[C@H](N)c3ccccc3)[C@H]2SC1 [Cephalexin (Cefalexin), Cephalexin] | 69.2 | 59.6 | 85.9 | significant inhibition effect | 71.2 | 95.2 | 92.7 | 57.5 | 94.9 | 76.2 | 80.6 | 109 | 96.1 | 
